Results taken from patent US10239884B2, “Coelenterazine compounds and uses thereof” (KEIO UNIVERSITY, priority 2017, dated 2019).

Assays:
RLuc8.6-535 [1] = biological target: T1, RLuc8.6-535 (Renilla reniformis, UniProt P27652, A123S/A143M/A55T/C124A/D154M/D162E/E155G/I163L/K136R/M185L/M253L/S130A/S287L); assay type: biochemical; parameters: expressed in transfected cells; host or cells: COST cells (so in the source); conditions: 2 μM substrate in PBS pH 7.4, cell lysate, maximum intensity over 1 second, relative value
T1 sequence (P27652 whole entry A55T/A123S/C124A/S130A/K136R/A143M/D154M/E155G/D162E/I163L/M185L/M253L/S287L): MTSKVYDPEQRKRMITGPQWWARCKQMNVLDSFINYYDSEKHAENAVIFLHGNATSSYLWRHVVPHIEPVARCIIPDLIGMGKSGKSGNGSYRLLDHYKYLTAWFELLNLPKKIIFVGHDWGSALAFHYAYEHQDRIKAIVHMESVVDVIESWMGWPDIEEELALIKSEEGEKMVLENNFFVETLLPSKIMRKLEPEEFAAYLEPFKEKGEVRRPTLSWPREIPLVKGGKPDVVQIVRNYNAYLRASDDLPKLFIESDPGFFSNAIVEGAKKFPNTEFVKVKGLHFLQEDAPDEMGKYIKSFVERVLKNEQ
Source text: (§1) The luciferases were respectively expressed in COST cells using an expression vector (pcDNA3.1(+), commercially available from Invitrogen) comprising the sequence encoding native Renilla Luciferase (RLuc) (trade name pGL4.75, commercially available from Promega) or an expression vector (trade name pcDNA3.1(+), commercially available from Invitrogen) comprising the sequence encoding a RLuc derivative RLuc8 or RLuc8.6-535 (Reference: Loening, A. M. et al., Nat. Methods, 2007, 4, 641-643.). The cells were lysed using a Renilla Luciferase Lysis Buffer (E291A, Promega), and the lysate was directly used as an enzyme solution. […] Bioluminescence was measured according to the protocol of Renilla Luciferase Assay System (Cat. No. E 2810; Promega). The luminescent substrate was dissolved in methanol to prepare a 2 mM solution. The solution was diluted to 2 μM with PBS buffer (pH 7.4), and the diluted solution was used as a substrate solution. To 200 μL of the substrate solution, 4 μL of the cell lysate containing RLuc, RLuc 8 or RLuc8.6-535 was added to start the luminescent reaction. The luminescence intensity was measured with a Berthold Lumat LB 9507 for 1 second, and indicated by the maximum luminescence intensity (I). The luminescence intensity of the native CTZ by RLuc8 was set to be 1.0, and the other bioluminescence intensities were normalized to be relative values to that of native CTZ.

RLuc8 [2] = biological target: T2, RLuc8 (Renilla reniformis, UniProt P27652, A143M/A55T/C124A/K136R/M185V/M253L/S130A/S287L); assay type: biochemical; conditions: 2 μM substrate in PBS pH 7.4, cell lysate, maximum intensity over 1 second, relative value
T2 construct: expressed in transfected cells; host or cells: COST cells (so in the source)
T2 sequence (P27652 whole entry A55T/C124A/S130A/K136R/A143M/M185V/M253L/S287L): as the sequence (P27652 whole entry A55T/A123S/C124A/S130A/K136R/A143M/D154M/E155G/D162E/I163L/M185L/M253L/S287L) above, with S123A, M154D, G155E, E162D, L163I, L185V counted along it
Source text: as §1

RLuc8.6-535 [3] = biological target: T1, RLuc8.6-535; assay type: biochemical; parameters: expressed in transfected cells; host or cells: COST cells (so in the source); conditions: bioluminescence spectrum, ATTO LumiFL
Method: (§2) As in the method for measuring bioluminescence intensity described above, luminescence spectrum was measured according to the protocol of Renilla Luciferase Assay System (Cat. No. E 2810; Promega). The luminescence spectrum was measured using ATTO LumiFL. The maximum luminescence intensities were normalized to be relative values to 1.0 upon determination of the maximum luminescence wavelength.

RLuc8 [4] = biological target: T2, RLuc8; assay type: biochemical; conditions: bioluminescence spectrum, ATTO LumiFL
Method: as §2

[5] = biological target: T3, Renilla Luciferase (RLuc) (Renilla reniformis, UniProt P27652); conditions: cited from earlier work
T3 sequence (P27652 1-311): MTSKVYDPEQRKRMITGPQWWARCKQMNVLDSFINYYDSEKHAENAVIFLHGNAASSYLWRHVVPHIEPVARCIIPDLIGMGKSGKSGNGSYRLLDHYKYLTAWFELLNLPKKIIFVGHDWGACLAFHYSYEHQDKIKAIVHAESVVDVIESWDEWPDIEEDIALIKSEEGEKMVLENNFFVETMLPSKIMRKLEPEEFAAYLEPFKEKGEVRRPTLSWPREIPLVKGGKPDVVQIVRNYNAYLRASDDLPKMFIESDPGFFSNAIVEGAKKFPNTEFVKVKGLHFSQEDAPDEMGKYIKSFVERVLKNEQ

| Compound | RLuc8.6-535 luminescence intensity (%) (RLuc8.6-535 [1]) | RLuc8 luminescence intensity (%) (RLuc8 [2]) | RLuc8.6-535 half-width (nm) (RLuc8.6-535 [3]) | RLuc8.6-535 maximum luminescence wavelength (nm) (RLuc8.6-535 [3]) | RLuc8 half-width (nm) (RLuc8 [4]) | RLuc8 maximum luminescence wavelength (nm) (RLuc8 [4]) | luminescence intensity relative to the native RLuc luminescence system [5] | shift of luminescence wavelength to the shorter wavelength side compared to native CTZ [5] | luminescence wavelength ([5]; emits light at around) |
| --- | --- | --- | --- | --- | --- | --- | --- | --- | --- |
| O=c1c(Cc2ccc(O)cc2)nc2c(Cc3ccccc3)[nH]c(-c3ccc(OCCO)cc3)cn1-2 [6-Alkyl2OH-CTZ] | 43.2 | 15.0 | [56] nm | 411 | [59] nm | 411 nm |  |  |  |
| COCCCOc1ccc(-c2cn3c(=O)c(Cc4ccccc4)nc-3c(Cc3ccccc3)[nH]2)cc1 [6-Alkyl3OMe-2H-CTZ] | 29.3 | 2.93 | [53] nm | 413 | [49] nm | 416 nm |  |  |  |
| Cc1ccc(-c2cn3c(=O)c(Cc4ccccc4)nc-3c(Cc3ccccc3)[nH]2)cc1 [6-Methyl-2H-CTZ] | 25.3 | 1.44 | [49] nm | 411 | [45] nm | 408 nm |  |  |  |
| CCCCOc1ccc(-c2cn3c(=O)c(Cc4ccc(O)cc4)nc-3c(Cc3ccccc3)[nH]2)cc1 [Example 6-Alkyl3-CTZ] | 39.6 | 8.07 | [60] nm | 412 | [46] nm | (413) nm |  |  |  |
| O=c1c(Cc2ccccc2)nc2c(Cc3ccccc3)[nH]c(-c3ccc(OCCCCO)cc3)cn1-2 [6-Alkyl4OH-2H-CTZ] | 23.9 | 3.45 | [68] nm | 405 | [69] nm | 404 nm |  |  |  |
| CCCCOc1ccc(-c2cn3c(=O)c(Cc4ccccc4)nc-3c(Cc3ccccc3)[nH]2)cc1 [6-Alkyl3-2H-CTZ] | 28.4 | 2.00 | [53] nm | 413 | [50] nm | 411 nm |  |  |  |
| O=c1c(Cc2ccc(O)cc2)nc2c(Cc3ccccc3)[nH]c(-c3ccc(OCCCCO)cc3)cn1-2 [6-Alkyl4OH-CTZ] | 59.8 | 11.8 | [60] nm | 412 | [69] nm | 404 nm |  |  |  |
| CCc1ccc(-c2cn3c(=O)c(Cc4ccc(O)cc4)nc-3c(Cc3ccccc3)[nH]2)cc1 [Example 6-Ethyl-CTZ] | 29.4 | 2.68 | [60] nm | 406 |  | (410) nm |  |  |  |
| O=c1c(Cc2ccccc2)nc2c(Cc3ccccc3)[nH]c(-c3ccc(OCCCCCO)cc3)cn1-2 [6-Alkyl5OH-2H-CTZ] | 18.0 | 2.88 | [68] nm | 406 | [70] nm | 403 nm |  |  |  |
| COCc1ccc(-c2cn3c(=O)c(Cc4ccccc4)nc-3c(Cc3ccccc3)[nH]2)cc1 [6-Ether-2H-CTZ, reference compound] | 2.17 | 0.36 | [53] nm | 406 |  | (393) nm |  |  |  |
| O=c1c(Cc2ccccc2)nc2c(Cc3ccccc3)[nH]c(-c3ccccc3)cn1-2 [DeepBlueC (trade name), reference compound] | 5.80 | 2.30 | [51] nm | 410 | [57] nm | 416 nm | about 4% | about 80 nm | around 400 nm |
| COCc1ccc(-c2cn3c(=O)c(Cc4ccc(O)cc4)nc-3c(Cc3ccccc3)[nH]2)cc1 [Example 6-Ether-CTZ, reference compound] | 8.94 | 0.85 | [49] nm | 411 |  | (420) nm |  |  |  |
| CCc1ccc(-c2cn3c(=O)c(Cc4ccccc4)nc-3c(Cc3ccccc3)[nH]2)cc1 [6-Ethyl-2H-CTZ] | 18.0 | 0.62 | [50] nm | 411 |  | (402) nm |  |  |  |
| O=c1c(Cc2ccccc2)nc2c(Cc3ccccc3)[nH]c(-c3ccc(OCCCO)cc3)cn1-2 [6-Alkyl3OH-2H-CTZ] | 23.9 | 5.03 | [56] nm | 413 | [65] nm | 411 nm |  |  |  |
| O=c1c(Cc2ccccc2)nc2c(Cc3ccccc3)[nH]c(-c3ccc(OCCO)cc3)cn1-2 [6-Alkyl2OH-2H-CTZ] | 6.24 | 6.21 | [68] nm | 407 | [65] nm | 413 nm |  |  |  |
